Reference: patent US8324406B2, “Antitumoral dihydropyran-2-one compounds” (priority 2006, dated 2012)
pIC50: −log10 of the molar value. Values after ≈ are worked out from the molar mass of the structure shown. Where two headings read alike, the source gives them in different places.

Experiments:
breast cancer carcinoma = conditions: cited from earlier work
HeLa cells = test: Anti-mitotic assay (anti-MPM2 immunoassay); format: cell-based; conditions: Homo sapiens, 18 hours incubation, read-out: IC50 (50% mitotic arrest)
Procedure: Anti-Mitotic Assay Protocol
The mitotic ratio of the cell cultures (percentage of cells arrested in mitosis) was estimated using a specific 96-well microplate immunoassay that quantitatively detects a specific mitotic marker. HeLa cells (h-cervix carcinoma, ATCC# CCL-2) were incubated for 18 hours in the presence or absence of the samples being tested. Afterwards, cells were washed with PBS and lysed on ice in 75 μL of freshly prepared lysis buffer (1 mM EGTA (pH 7.5), 0.5 mM PMSF and 1 mM NaVO3) for 30 min. An aliquot of the cell extract (60 μL) was transferred to a high-binding surface ELISA plate and dried in a speed-vac for 2 h at room temperature. Plates were then blocked in 100 μL. PBS-1% BSA for 30 min at 30° C. and sequentially incubated with anti-MPM2 primary mouse monoclonal antibody (Upstate Biotechnology, cat #05-368) for 18 h at 4° C. and appropriate peroxidase-conjugated secondary antibody for 1 h at 30° C. After intensive washing in 0.02% Tween-20, peroxidase reaction were performed using 30 μL of TMB (3,3′,5,5′-tetramethyl-benzidine) for 30 min at 30° C. Reaction was stopped by adding 30 μL of a 4% H2SO4 solution. Assay was quantified by measuring the O.D. at 450 nm in a microplate spectrophotometer. Results were expressed as IC50, sample concentration that produces 50% mitotic arrest in treated cell cultures, as compared to control, untreated cultures.

A549 = test: cells; format: cell-based; conditions: Homo sapiens; for IC (TGI): read-out: TGI
Text: (§1) The aim of this assay is to evaluate the in vitro cytostatic (ability to delay or arrest tumor cell growth) or cytotoxic (ability to kill tumor cells) activity of the samples being tested.
(§2) Evaluation of Cytotoxic Activity Using the SBR Colorimetric Assay
(§3) A colorimetric type of assay, using sulforhodamine B (SRB) reaction has been adapted for a quantitative measurement of cell growth and viability (following the technique described by Skehan P et al. J. Natl. Cancer Inst. 1990, 82, 1107-1112).
(§4) This form of assay employs SBS-standard 96-well cell culture microplates (Faircloth et al. Methods in cell science, 1988, 11(4), 201-205; Mosmann et al, Journal of. Immunological. Methods, 1983, 65(1-2), 55-63). All the cell lines used in this study, derived from different types of human cancer, were obtained from the American Type Culture Collection (ATCC).
(§5) Cells were maintained in Dulbecco's Modified Eagle Medium (DMEM) supplemented with 10% Fetal Bovine Serum (FBS), 2 mM L-glutamine, 100 U/mL penicillin and 100 U/mL streptomycin at 37° C., 5% CO2 and 98% humidity. For the experiments, cells were harvested from subconfluent cultures using trypsinization and resuspended in fresh medium before counting and plating.
(§6) Cells were seeded in 96 well microtiter plates at 5×10^3 cells per well in aliquots of 150 μL, and allowed to attach to the plate surface for 18 hours in drug free medium. One control (untreated) plate of each cell line was fixed (as described below) and used for time zero reference value. Afterwards, test samples were added to the cultures in ten serial dilutions, in aliquots of 50 μL, ranging from 10 to 0.00262 μg/mL. After 48 hours exposure, the antitumor effect was estimated by the SRB method: Briefly, cells were washed twice with PBS, fixed for 15 min in 1% glutaraldehyde solution, rinsed twice in PBS, and stained in 0.4% SRB solution for 30 min at room temperature. Cells were then rinsed several times with 1% acetic acid solution and air-dried. SRB was then extracted in 10 mM trizma base solution and the absorbance measured in an automated spectrophotometric plate reader at 490 nm. Cell survival was expressed as percentage of control cell growth. The final effect of the sample being tested was estimated by applying the NCI algorithm (Boyd M R and Paull K D. Drug Dev. Res. 1995, 34, 91-104).
(§7) Using the mean±SD of triplicate cultures, a dose-response curve was automatically generated using nonlinear regression analysis. Three reference parameters were calculated (NCI algorithm) by automatic interpolation: GI50=concentration that produces 50% growth inhibition; TGI=total growth inhibition (cytostatic effect) and LC50=concentration that produces 50% net cell killing (cytotoxic effect).

HT29 = test: cells; format: cell-based; conditions: Homo sapiens; for IC (TGI): read-out: TGI
Text: as §1, §2, §3, §4, §5, §6, §7

MDA-MB-231 = test: cells; format: cell-based; conditions: Homo sapiens; for IC (TGI): read-out: TGI
Text: as §1, §2, §3, §4, §5, §6, §7

Saccharomyces cerevisiae = conditions: fungus Saccharomyces cerevisiae; cited from earlier work
[1] = tested on: L929 mouse fibroblast cell culture; conditions: cited from earlier work
[2] = MDA-MB-231, 48 h, read-out: LC50
[3] = A549, 48 hours exposure, SRB, 50% net cell killing (cytotoxic effect), read-out: LC50 (the source's name)
[4] = A549, 48 hours exposure, SRB, concentration that produces 50% growth inhibition, read-out: GI50
[5] = A549, 48 hours exposure, SRB, total growth inhibition (cytostatic effect)
[6] = HT-29, HT29, 48 hours exposure, SRB, 50% net cell killing (cytotoxic effect), read-out: LC50 (the source's name)
[7] = HT-29, HT29, 48 hours exposure, SRB, concentration that produces 50% growth inhibition, read-out: GI50
[8] = HT-29, HT29, 48 hours exposure, SRB, total growth inhibition (cytostatic effect)
[9] = MDA-MB-231, 48 hours exposure, SRB, 50% net cell killing (cytotoxic effect), read-out: LC50 (the source's name)
[10] = MDA-MB-231, 48 hours exposure, SRB, concentration that produces 50% growth inhibition, read-out: GI50
[11] = MDA-MB-231, 48 hours exposure, SRB, total growth inhibition (cytostatic effect)

CC(=O)O[C@H]1C(=O)[C@@]2(C)[C@H]([C@H](OC(=O)c3ccccc3)[C@]3(O)C[C@H](OC(=O)[C@H](O)[C@@H](NC(=O)c4ccccc4)c4ccccc4)C(C)=C1C3(C)C)[C@]1(OC(C)=O)CO[C@@H]1C[C@@H]2O [paclitaxel]
pIC50 (breast cancer carcinoma): 8.68

COC1=CC[C@@H]([C@@H](C)/C=C(C)/C=C\C=C/C(=O)N[C@H](C(=O)N/C=C\C[C@H](C/C=C(\C)Cl)OC(N)=O)C(C)(C)C)OC1=O [Compound 1]
pIC50 (HeLa cells): 7.58 | GI50 (A549; A549, 48 h): 0.000379 µM | CC50 (A549; A549, 48 h, read-out: LC50): > 0.165 µM | IC (TGI) (A549; A549, 48 h): 0.00109 µM | GI50 (HT29; HT-29, 48 h): 0.000462 µM | CC50 (HT29; HT-29, 48 h, read-out: LC50): 0.00099 µM | IC (TGI) (HT29; HT-29, 48 h): 0.00061 µM | GI50 (MDA-MB-231; MDA-MB-231, 48 h): 0.000445 µM | CC50 (MDA-MB-231; [2]): 0.0028 µM | IC (TGI) (MDA-MB-231; MDA-MB-231, 48 h): 0.00099 µM

C=C/C=C\[C@H](C)[C@H](OC(N)=O)[C@@H](C)[C@H](O)[C@@H](C)C/C(C)=C\[C@H](C)[C@@H](O)[C@@H](C)/C=C\[C@@H](O)CC1OC(=O)[C@H](C)[C@@H](O)[C@H]1C (single isomer, unassigned; (+)) [(+)-discodermolide]
pIC50 (breast cancer carcinoma): 8.62

COC(=O)CNC(=O)CCC/C=C\NC(=O)/C=C(C)/C=C/[C@H](C)[C@H](OC)[C@H](C)[C@H](/C=C/c1ccccc1)OC [crocacin D]
MIC (Saccharomyces cerevisiae): 0.0014 µg/mL (≈ 0.00259 µM) | IC50 (toxicity) [1]: 0.06 µg/mL (≈ 0.111 µM)

COC1=CCC(C(C)/C=C(C)/C=C/C=C\C(=O)NC(C(=O)N/C=C\CC(C/C=C(\C)Cl)OC(N)=O)C(C)(C)C)OC1=O (stereo not drawn) [Compound 2]
pIC50 (HeLa cells): 7.58 | GI50 (A549; A549, 48 h): 0.00863 µM | CC50 (A549; A549, 48 h, read-out: LC50): ≥ 16.5 µM | IC (TGI) (A549; A549, 48 h): 0.0237 µM | GI50 (HT29; HT-29, 48 h): 0.00831 µM | CC50 (HT29; HT-29, 48 h, read-out: LC50): 0.0172 µM | IC (TGI) (HT29; HT-29, 48 h): 0.0109 µM | GI50 (MDA-MB-231; MDA-MB-231, 48 h): 0.00985 µM | CC50 (MDA-MB-231; [2]): 0.072 µM | IC (TGI) (MDA-MB-231; MDA-MB-231, 48 h): 0.0215 µM

COC1=CC[C@@H]([C@@H](C)/C=C(C)/C=C\C=C/C(=O)N[C@H](C(=O)N/C=C\C[C@H](O)C/C=C(\C)Cl)C(C)(C)C)OC1=O [(21S)-30a]
CC50 (A549; [3]): > 1.63 µM | GI50 (A549; [4]): 0.00373 µM | IC (TGI) (A549; [5]): 0.195 µM | CC50 (HT29; [6]): > 1.63 µM | GI50 (HT29; [7]): 0.00266 µM | IC (TGI) (HT29; [8]): 0.00302 µM | CC50 (MDA-MB-231; [9]): 0.284 µM | GI50 (MDA-MB-231; [10]): 0.00249 µM | IC (TGI) (MDA-MB-231; [11]): 0.0213 µM

COC1=CC[C@@H]([C@@H](C)/C=C(C)/C=C\C=C\C(=O)N[C@H](C(=O)N/C=C\C[C@H](C/C=C(\C)Cl)OC(N)=O)C(C)(C)C)OC1=O [Compound 8]
GI50 (A549; A549, 48 h): 0.00363 µM | CC50 (A549; A549, 48 h, read-out: LC50): > 1.65 µM | IC (TGI) (A549; A549, 48 h): 0.013 µM | GI50 (HT29; HT-29, 48 h): 0.00214 µM | CC50 (HT29; HT-29, 48 h, read-out: LC50): 0.00627 µM | IC (TGI) (HT29; HT-29, 48 h): 0.00313 µM | GI50 (MDA-MB-231; MDA-MB-231, 48 h): 0.00346 µM | CC50 (MDA-MB-231; [2]): 0.0412 µM | IC (TGI) (MDA-MB-231; MDA-MB-231, 48 h): 0.0101 µM

COC1=CC[C@@H]([C@@H](C)/C=C(C)/C=C\C=C/C(=O)N[C@@H](Cc2ccccc2)C(=O)N/C=C\C[C@H](C/C=C(\C)Cl)O[Si](C)(C)C(C)(C)C)OC1=O [Compound 29d]
CC50 (A549; [3]): 1.38 µM | GI50 (A549; [4]): 0.464 µM | IC (TGI) (A549; [5]): 0.801 µM | CC50 (HT29; [6]): 0.928 µM | GI50 (HT29; [7]): 0.829 µM | IC (TGI) (HT29; [8]): 0.872 µM | CC50 (MDA-MB-231; [9]): 1.83 µM | GI50 (MDA-MB-231; [10]): 1.1 µM | IC (TGI) (MDA-MB-231; [11]): 1.39 µM

COC1=CC[C@@H]([C@@H](C)/C=C(C)/C=C\C=C/C(=O)N[C@H](C(=O)N/C=C\C[C@@H](C/C=C(\C)Cl)OC(N)=O)C(C)(C)C)OC1=O [Compound (21S)-1]
GI50 (A549; A549, 48 h): 0.00214 µM | CC50 (A549; A549, 48 h, read-out: LC50): > 1.65 µM | IC (TGI) (A549; A549, 48 h): 0.0429 µM | GI50 (HT29; HT-29, 48 h): 0.000891 µM | CC50 (HT29; HT-29, 48 h, read-out: LC50): 0.0231 µM | IC (TGI) (HT29; HT-29, 48 h): 0.00163 µM | GI50 (MDA-MB-231; MDA-MB-231, 48 h): 0.00165 µM | CC50 (MDA-MB-231; [2]): 0.0346 µM | IC (TGI) (MDA-MB-231; MDA-MB-231, 48 h): 0.00577 µM
